Measured values reported in US10919941B2, “Functional lipid constructs” (KODE BIOTECH LIMITED, priority 2007, dated 2021).
No end group written: not given here.

Tests used:
[1] = system: natural Mi III antibody reactive human serums; test: Positive serum reactivity of modified RBCs in the field; type: cell-based; design: key: 0 or ‘−’ no agglutination; 0 or ‘−’ no agglutination; 1+ or 3=very weak agglutination; 1+ or 3=very weak agglutination; 2+ or 5=weak agglutination; 2+ or 5=weak agglutination; 3+ or 8=moderate strong agglutination; 3+ or 8=moderate strong agglutination; 4+ or 10/12=strong agglutination; 4+ or 10/12=strong agglutination; 4+ or 10/12=strong agglutination; details: 22 at 50, 17 and 24 at 200 μg/ml; 3 h RT then 18 h 4° C.
Procedure: (§1) The suspensions are either: • 1. incubated for 2 hours at 37° C. before being washed and suspended in a cell medium for serological analysis at a concentration of 0.8 to 3% (Method 1); or • 2. incubated for 3 to 4 hours at room temperature (circa 25° C.) followed by 18 hours at 4° C. before being washed and suspended in a cell medium for serological analysis at a concentration of 0.8 to 3% (Method 2).
(§2) Serological reactions are graded or scored by either of two established systems (0 or ‘−’ no agglutination, 1+ or 3=very weak agglutination, 2+ or 5=weak agglutination, 3+ or 8=moderate strong agglutination, 4+ or 10/12=strong agglutination)

[2] = system: TAP1 serum (Taiwan Miltenberger antibody positive sample); test: Anti-MUT serum (TAP1) reactivity of modified RBCs (saline and AHG); type: cell-based, human; design: key: 0 or ‘−’ no agglutination; 0 or ‘−’ no agglutination; 1+ or 3=very weak agglutination; 1+ or 3=very weak agglutination; 2+ or 5=weak agglutination; 2+ or 5=weak agglutination; 3+ or 8=moderate strong agglutination; 3+ or 8=moderate strong agglutination; 4+ or 10/12=strong agglutination; 4+ or 10/12=strong agglutination; 4+ or 10/12=strong agglutination; details: construct 50 μg/ml
Procedure: as §1, §2

## M24: DOPE peptide-lipid construct: Hil peptide EETGETGQLV, leader c, spacer CMG(2) (EETGETGQLVC; also: DOPE peptide-lipid construct via leader Cys, spacer CMG(2))
[1]
  score vs Mi III reactive serum 912485657-9: 0
  score vs Mi III reactive serum 914146821-8: 0
  score vs Mi III reactive serum 922390844-5: 0
  score vs Mi III reactive serum 926190919-0: 0
  score vs Mi III reactive serum 926555294-1: 0
  score vs Mi III reactive serum 927175131-4: 0
  score vs Mi III reactive serum 927299700-1: 0
  score vs Mi III reactive serum 927516053-2: 0
  score vs Mi III reactive serum 927619701-8: 0
  score vs Mi III reactive serum 932360876-4: 0
  score vs Mi III reactive serum 932467774-5: 0
  score vs Mi III reactive serum 932809044-1: 0
  score vs Mi III reactive serum 942223755-1: 0
  score vs Mi III reactive serum 942404708-4 (row interpreted Mur): 0
  score vs Mi III reactive serum 942404708-4 (row interpreted other): 0
  score vs Mi III reactive serum 942421413-0: 0
  score vs Mi III reactive serum 942423002-4: 3
  score vs Mi III reactive serum 942433813-3: 0
  score vs Mi III reactive serum 942433855-3: 8
  score vs Mi III reactive serum 942442720-2: 0
  score vs Mi III reactive serum 942448627-8: 5
  score vs Mi III reactive serum 942753165-4: 8
  score vs Mi III reactive serum 942762589-1: 3
  score vs Mi III reactive serum 9322338631: 0
  score vs Mi III reactive serum 9325490091: 0
  score vs Mi III reactive serum 9327986660: 0
  score vs Mi III reactive serum 9328118428: 5
  score vs Mi III reactive serum 9328154853: 3
  score vs Mi III reactive serum 9328791834: 0
  score vs Mi III reactive serum 9424248012: 0
  score vs Mi III reactive serum 9424292604: 5
  score vs Mi III reactive serum 9424396133: 0
  score vs Mi III reactive serum 9425256505: 8
  score vs Mi III reactive serum 9427455417: 5
  score vs Mi III reactive serum 9427613497: 0
  score vs Mi III reactive serum 9427615156: 0
  score vs Mi III reactive serum S-3: 5
[2]
  TAP 1 Serum, AHG score: 0
  TAP 1 Serum, Saline score: 0
